From ChEMBL document CHEMBL1154574, “Cytonic acids A and B: novel tridepside inhibitors of hCMV protease from the endophytic fungus Cytonaema species” (J Nat Prod, 2000)

Assay: Inhibition of human cytomegalovirus protease by scintillation proximity assay
Parameters: species or system Human betaherpesvirus 5

IC50 | Structure (SMILES)
43 µM | CCCCCc1cc(O)cc(O)c1C(=O)Oc1cc(O)c(C(=O)Oc2cc(O)c(C(=O)O)c(CCC)c2)c(CCC)c1 [CYTONIC ACID A]
11 µM | CCCCCc1cc(OC(=O)c2c(O)cc(OC(=O)c3c(O)cc(O)cc3CCC)cc2CCC)cc(O)c1C(=O)O [CYTONIC ACID B]
